In paper PMC10165273, “Itch receptor MRGPRX4 interacts with the receptor activity–modifying proteins” (The Journal of Biological Chemistry, 2023):
Values joined by “and” are separate entries in the source; they are usually repeats but may differ in a detail not shown here. Equal entries are not always repeated. Where two headings read alike, the source gives them in different places.

Legend:
[1] = biological target: T1, MRGPRX4 + RAMP3 (Homo sapiens, UniProt Q96LA9); assay: IP1 accumulation, MRGPRX4 coexpressed with RAMP3; assay type: cell-based; parameters: key: % IP1; unstimulated mock = 0%, fully stimulated MRGPRX4 = 100%; conditions: Figure 4c-f; agonist 100µM; X4:ramp3 1:2; MRGPRX4 = 100
T1 construct: expressed in transfected cells; host or cells: HEK293T

[2] = biological target: T2, MRGPRX4 + RAMP2 (Homo sapiens, UniProt Q96LA9); assay: IP1 accumulation, MRGPRX4 coexpressed with RAMP2; assay type: cell-based; conditions: for activation at 100 µM / activation at 20 µM / activation at 4 µM / activation at 0.8 µM / activation at […] / activation at 0.032 µM: 2 h
T2 construct: expressed in transfected cells; host or cells: HEK293T
Experimental: HEK293T cells were transfected with 1 pg/cell of MRGPRX4 DNA, and the amount of DNA was kept constant at 2 pg/cell with pcDNA3.1(+) empty vector, unless otherwise specified. Twenty four hours after transfection, IP1 assay was performed as previously described ([51]). When applicable, cells were treated with 1 μM YM254890 (YM) or different concentrations of U73122 for 1 h prior to addition of agonist or buffer. After incubation for 2 h, HTRF reagents and IP1 calibration standards were added and incubated for 2 h in the dark at room temperature. Time-resolved fluorescence signals were read on the BioTek Synergy NEO-TRF Hybrid multi-mode reader (BioTek Instruments). All data were carried out in three independent experiments with three technical replicate each.
For RAMP DNA titration assay, HEK293T cells were cotransfected with a constant amount of 1 pg/cell of FLAG-MRGPRX4-GFP10-1D4 to which a serial dilution of 1, 0.75, 0.5, 0.25, or 0 pg/cell of each HA-RAMP-OLLAS was added. For a homogenous transfection of MRGPRX4, a master mix of MRGPRX4 DNA was made prior to addition of the RAMP DNA. […]
Data reduction, standard calibration, and transformation of HTRF data were performed as previously described ([51]). Normalized IP1 values were calculated relative to the unstimulated mock-transfected cells (set to 0%) and fully stimulated MRGPRX4 (alone if applicable) (set to 100%).

T2 sequence (Q96LA9 whole entry): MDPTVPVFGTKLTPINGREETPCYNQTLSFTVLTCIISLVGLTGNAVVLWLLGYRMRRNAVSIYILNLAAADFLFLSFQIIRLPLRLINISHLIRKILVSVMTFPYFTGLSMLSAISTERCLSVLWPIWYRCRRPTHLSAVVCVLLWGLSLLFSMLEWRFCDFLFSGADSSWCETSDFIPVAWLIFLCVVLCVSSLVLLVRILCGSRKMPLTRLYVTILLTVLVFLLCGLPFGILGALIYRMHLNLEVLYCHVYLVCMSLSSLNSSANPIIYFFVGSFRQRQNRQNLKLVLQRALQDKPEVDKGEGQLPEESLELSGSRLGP
T1 sequence (Q96LA9 whole entry): as above

In the case of `CC(C)[C@H]1CC[C@H](C(=O)N[C@H](Cc2ccccc2)C(=O)O)CC1` [Nateglinide], the “response to agonist, X4:ramp3.I:2” value [1] is reported as 54.9628 and 57.8528, the activation at 100 µM ([2]; log [nateglinide] (M) -4, MRGPRX4+RAMP2 0.75pg 1:0.75, Supplementary Figure 5e, read-out: IP1 accumulation (normalized)) is reported as 67.4% and the activation at 100 µM ([2]; log [nateglinide] (M) -4, MRGPRX4+RAMP2 1pg 1:1, Supplementary Figure 5e, 5g, read-out: IP1 accumulation (normalized)) is reported as 56.4%. For the same molecule, the activation at 20 µM ([2]; log [nateglinide] (M) -4.69897, MRGPRX4+RAMP2 0.5pg 1:0.5, Supplementary Figure 5e, read-out: IP1 accumulation (normalized)) was 67.3%, the activation at 20 µM ([2]; log [nateglinide] (M) -4.69897, MRGPRX4+RAMP2 0.75pg 1:0.75, Supplementary Figure 5e, read-out: IP1 accumulation (normalized)) was 50.8% and the activation at 20 µM ([2]; log [nateglinide] (M) -4.69897, MRGPRX4+RAMP2 1pg 1:1, Supplementary Figure 5e, 5g, read-out: IP1 accumulation (normalized)) was 31.2%. It also gave an activation at 4 µM ([2]; log [nateglinide] (M) -5.39794, MRGPRX4+RAMP2 0.5pg 1:0.5, Supplementary Figure 5e, read-out: IP1 accumulation (normalized)) of 27.4%, an activation at 4 µM ([2]; log [nateglinide] (M) -5.39794, MRGPRX4+RAMP2 0.75pg 1:0.75, Supplementary Figure 5e, read-out: IP1 accumulation (normalized)) of 22.7% and an activation at 4 µM ([2]; log [nateglinide] (M) -5.39794, MRGPRX4+RAMP2 1pg 1:1, Supplementary Figure 5e, 5g, read-out: IP1 accumulation (normalized)) of 15%. It also gave an activation at 0.8 µM ([2]; log [nateglinide] (M) -6.09691, MRGPRX4+RAMP2 0.5pg 1:0.5, Supplementary Figure 5e, read-out: IP1 accumulation (normalized)) of 14.1%, an activation at 0.8 µM ([2]; log [nateglinide] (M) -6.09691, MRGPRX4+RAMP2 0.75pg 1:0.75, Supplementary Figure 5e, read-out: IP1 accumulation (normalized)) of 9.77% and an activation at 0.8 µM ([2]; log [nateglinide] (M) -6.09691, MRGPRX4+RAMP2 1pg 1:1, Supplementary Figure 5e, 5g, read-out: IP1 accumulation (normalized)) of 5.12%. For the same molecule, the activation at […] ([2]; log [nateglinide] (M) -6.79588, MRGPRX4+RAMP2 0.5pg 1:0.5, Supplementary Figure 5e, read-out: IP1 accumulation (normalized)) was 8.46%, the activation at […] ([2]; log [nateglinide] (M) -6.79588, MRGPRX4+RAMP2 0.75pg 1:0.75, Supplementary Figure 5e, read-out: IP1 accumulation (normalized)) was 6.53% and the activation at […] ([2]; log [nateglinide] (M) -6.79588, MRGPRX4+RAMP2 1pg 1:1, Supplementary Figure 5e, 5g, read-out: IP1 accumulation (normalized)) was 3.5%. For the same molecule, the activation at 0.032 µM ([2]; log [nateglinide] (M) -7.49485, MRGPRX4+RAMP2 0.5pg 1:0.5, Supplementary Figure 5e, read-out: IP1 accumulation (normalized)) was 8.31%, the activation at 0.032 µM ([2]; log [nateglinide] (M) -7.49485, MRGPRX4+RAMP2 0.75pg 1:0.75, Supplementary Figure 5e, read-out: IP1 accumulation (normalized)) was 6.16% and the activation at 0.032 µM ([2]; log [nateglinide] (M) -7.49485, MRGPRX4+RAMP2 1pg 1:1, Supplementary Figure 5e, 5g, read-out: IP1 accumulation (normalized)) was 3.54%. For the same molecule, the activation at 100 µM ([2]; ratio MRGPRX4:RAMP2 1:0.25, log [Nateglinide] (M) -4, Fig S3b, read-out: IP1 accumulation) was 98.8%, the activation at 20 µM ([2]; ratio MRGPRX4:RAMP2 1:0.25, log [Nateglinide] (M) -4.69897, Fig S3b, read-out: IP1 accumulation) was 58.9% and the activation at 4 µM ([2]; ratio MRGPRX4:RAMP2 1:0.25, log [Nateglinide] (M) -5.39794, Fig S3b, read-out: IP1 accumulation) was 38%. The activation at 0.8 µM ([2]; ratio MRGPRX4:RAMP2 1:0.25, log [Nateglinide] (M) -6.09691, Fig S3b, read-out: IP1 accumulation) was 25.5%, the activation at […] ([2]; ratio MRGPRX4:RAMP2 1:0.25, log [Nateglinide] (M) -6.79588, Fig S3b, read-out: IP1 accumulation) was 22.6% and the activation at 0.032 µM ([2]; ratio MRGPRX4:RAMP2 1:0.25, log [Nateglinide] (M) -7.49485, Fig S3b, read-out: IP1 accumulation) was 20.5%. For the same molecule, the activation at 100 µM ([2]; ratio MRGPRX4:RAMP2 1:0.5, log [Nateglinide] (M) -4, Fig S3b, read-out: IP1 accumulation) was 67.8%, the activation at 20 µM ([2]; ratio MRGPRX4:RAMP2 1:0.5, log [Nateglinide] (M) -4.69897, Fig S3b, read-out: IP1 accumulation) was 62.1% and the activation at 4 µM ([2]; ratio MRGPRX4:RAMP2 1:0.5, log [Nateglinide] (M) -5.39794, Fig S3b, read-out: IP1 accumulation) was 36.6%. For the same molecule, the activation at 0.8 µM ([2]; ratio MRGPRX4:RAMP2 1:0.5, log [Nateglinide] (M) -6.09691, Fig S3b, read-out: IP1 accumulation) was 20.3%, the activation at […] ([2]; ratio MRGPRX4:RAMP2 1:0.5, log [Nateglinide] (M) -6.79588, Fig S3b, read-out: IP1 accumulation) was 15.7% and the activation at 0.032 µM ([2]; ratio MRGPRX4:RAMP2 1:0.5, log [Nateglinide] (M) -7.49485, Fig S3b, read-out: IP1 accumulation) was 15.3%. It also gave an activation at 100 µM ([2]; ratio MRGPRX4:RAMP2 1:1, log [Nateglinide] (M) -4, Fig S3b, read-out: IP1 accumulation) of 40.5%, an activation at 20 µM ([2]; ratio MRGPRX4:RAMP2 1:1, log [Nateglinide] (M) -4.69897, Fig S3b, read-out: IP1 accumulation) of 43.2% and an activation at 4 µM ([2]; ratio MRGPRX4:RAMP2 1:1, log [Nateglinide] (M) -5.39794, Fig S3b, read-out: IP1 accumulation) of 21.9%. For the same molecule, the activation at 0.8 µM ([2]; ratio MRGPRX4:RAMP2 1:1, log [Nateglinide] (M) -6.09691, Fig S3b, read-out: IP1 accumulation) was 14.1%, the activation at […] ([2]; ratio MRGPRX4:RAMP2 1:1, log [Nateglinide] (M) -6.79588, Fig S3b, read-out: IP1 accumulation) was 11.3% and the activation at 0.032 µM ([2]; ratio MRGPRX4:RAMP2 1:1, log [Nateglinide] (M) -7.49485, Fig S3b, read-out: IP1 accumulation) was 11.1%. It also gave an activation at 100 µM ([2]; ratio MRGPRX4:RAMP2 1:2, log [Nateglinide] (M) -4, Fig S3b, read-out: IP1 accumulation) of 28%, an activation at 20 µM ([2]; ratio MRGPRX4:RAMP2 1:2, log [Nateglinide] (M) -4.69897, Fig S3b, read-out: IP1 accumulation) of 15.2% and an activation at 4 µM ([2]; ratio MRGPRX4:RAMP2 1:2, log [Nateglinide] (M) -5.39794, Fig S3b, read-out: IP1 accumulation) of 6.45%. The activation at 0.8 µM ([2]; ratio MRGPRX4:RAMP2 1:2, log [Nateglinide] (M) -6.09691, Fig S3b, read-out: IP1 accumulation) was 4.89%, the activation at […] ([2]; ratio MRGPRX4:RAMP2 1:2, log [Nateglinide] (M) -6.79588, Fig S3b, read-out: IP1 accumulation) was 3.86% and the activation at 0.032 µM ([2]; ratio MRGPRX4:RAMP2 1:2, log [Nateglinide] (M) -7.49485, Fig S3b, read-out: IP1 accumulation) was 3.91%. For the same molecule, the Emax ([2]; Figure 4a bottom, DNA ratio MRGPRX4:RAMP2 1:1, MRGPRX4 alone = 100, read-out: efficacy) was 35.1%.
